This assay concerns hydroxyproline. The assay is described as follows: Bleomycin mice: hydroxyproline content of lung tissue (colorimetric assay). The format is in vivo, C57BL/6 male mice. The conditions noted are these: for Mean Diff., Hydroxyproline Level of Lung, Group 2 Bleo/Veh vs. BETi1 group: One Way ANOVA, Dunnett's; for Mean Diff., Hydroxyproline Level of Lung, Group 2 Bleo/Veh vs. BETi1 group / Mean 2 (group mean), Hydroxyproline Level of Lung: in µg/mg. The protocol:
The left lobe of lung tissue is collected, and snap frozen for hydroxyproline levels analysis. Hydroxyproline (4-hydroxyproline, Hyp) is a common nonproteinogenic amino acid. Hydroxyproline in tissue hydrolysates is an indirect measure of the amount of collagen present. Hydroxyproline content of lung tissue is measured by colorimetric assay.

The structures appear in SMILES notation. Several values for one entry are separate records, joined by “and”; a condition that tells them apart may be missing. Equal entries are not always repeated.

For `Cn1cc(-c2cccc(O)c2Oc2ccccc2)c2cc[nH]c2c1=O` [BETi1], the “reduction in hydroxyproline levels” value (3 mg/mL (group 5)) is recorded as “statistically significant compared to treatment with vehicle”. The hydroxyproline levels result (0.06, 0.6 and 3 mg/mL, vs bleomycin and vehicle) was “demonstrated a decrease in hydroxyproline levels”. Further, under “Group 3 Bleo/BETi1 0.06 mg/mL”, the “Hydroxyproline Level of Lung, Mean” value is listed as 0.2248 μg/mg tissue; the “Hydroxyproline Level of Lung, individual animals” value was 0.1154 μg/mg tissue and 0.2842 μg/mg tissue and 0.3149 μg/mg tissue and 0.2968 μg/mg tissue and 0.3372 μg/mg tissue and 0.1322 μg/mg tissue and 0.1196 μg/mg tissue and 0.1977 μg/mg tissue; the “Mean Diff., Hydroxyproline Level of Lung, Group 2 Bleo/Veh vs. BETi1 group” value was 0.08927; the “Mean 2 (group mean), Hydroxyproline Level of Lung” value (shortened to “Mean 2 (group mean)”) was 0.2248. Also, for the setting “Group 4 Bleo/BETi1 0.6 mg/mL”, the “Hydroxyproline Level of Lung, Mean” value was 0.2535 μg/mg tissue; the “Hydroxyproline Level of Lung, individual animals” value was 0.1377 μg/mg tissue and 0.3400 μg/mg tissue and 0.2954 μg/mg tissue and 0.1503 μg/mg tissue and 0.2745 μg/mg tissue and 0.3191 μg/mg tissue and 0.2242 μg/mg tissue and 0.2703 μg/mg tissue and 0.1029 μg/mg tissue and 0.2298 μg/mg tissue and 0.3121 μg/mg tissue and 0.2982 μg/mg tissue and 0.3414 μg/mg tissue; the “Mean Diff., Hydroxyproline Level of Lung, Group 2 Bleo/Veh vs. BETi1 group” value was found to be 0.0605; the “Mean 2 (group mean)” value is 0.2535. In addition, where the note is “Group 5 Bleo/BETi1 3 mg/mL”, the “Hydroxyproline Level of Lung, Mean” value worked out at 0.2003 μg/mg tissue; the “Hydroxyproline Level of Lung, individual animals” value is 0.1935 μg/mg tissue and 0.0596 μg/mg tissue and 0.2200 μg/mg tissue and 0.2800 μg/mg tissue and 0.2731 μg/mg tissue and 0.1308 μg/mg tissue and 0.2466 μg/mg tissue and 0.1112 μg/mg tissue and 0.3107 μg/mg tissue and 0.2382 μg/mg tissue and 0.3024 μg/mg tissue and 0.1349 μg/mg tissue and 0.1029 μg/mg tissue; the “Mean Diff., Hydroxyproline Level of Lung, Group 2 Bleo/Veh vs. BETi1 group” value is listed as 0.1137; the “Mean 2 (group mean)” value turned out to be 0.2003.

The record behind these values is US20250339409A1, “USES OF PAN BET INHIBITORS” (VYNE THERAPEUTICS INC., priority 2021, published 2025).
